pIC50: −log10 of the molar value. Each block holds one compound with its values, some of them ahead of it.
Experiments:
[1] = system: colon, pancreatic and bladder cancer cells; experiment: hexoseaminidase cell proliferation assay, summaries over cell lines; format: cell-based; details: for inhibition of cell proliferation (in words): dose and time dependent
Procedure: Water solubility studies were performed with the CD/analog complexes. […] The observed IC50 value of THBCD at 48 h is below 10 μM in all the colon, pancreatic and bladder cancer cells.
(§1) Using hexoseaminidase assay, we determined the effect of the compounds on cell proliferation. […] The IC50 value at 48 hours is below 10 μM in all the cancer cell lines.
(§2) Using hexoseaminidase assay, we determined the effect of the compounds on cell proliferation. […] The MRL16 IC50 value at 48 hours is below 0.3 μM in Colon cancer cell lines. […] Overall, the analogs can be used as chemotherapeutic agents against colon and pancreatic cancer.

[2] = system: PanC-1 pancreatic cancer cells; experiment: hexoseaminidase cell proliferation assay, PanC-1; format: cell-based
Procedure: as §1, §2

MiaPaCa-2 cells = experiment: colony formation, MiaPaCa-2; format: cell-based
SW480 cells [3] = experiment: colony formation, SW480; format: cell-based
[4] = system: 253JBV bladder cancer cells; experiment: hexoseaminidase cell proliferation assay, 253JBV; format: cell-based
Procedure: as §1

HCT116 cells [5] = experiment: colony formation, HCT116; format: cell-based
KU7 bladder cancer cells = experiment: hexoseaminidase cell proliferation assay, KU7; format: cell-based
Procedure: as §1

PanC-1 cells = experiment: colony formation, PanC-1; format: cell-based
SW480 colon cancer cells = experiment: hexoseaminidase cell proliferation assay, SW480; format: cell-based
From the text: (§3) Using hexoseaminidase assay, we determined the effect of the compounds on cell proliferation. […]
(§4) Using hexoseaminidase assay, we determined the effect of the compounds on cell proliferation. […] […] […] Overall, the analogs can be used as chemotherapeutic agents against colon and pancreatic cancer.

cancer stem cells = experiment: colonosphere formation; format: cell-based
Procedure: It was also determined the analogs inhibit colonosphere formation from cancer stem cells. […] The columns are 0, 10, 25, and 50 micromolar concentrations of the compounds labeled by rows.
The effect of the compounds on colonosphere formation was determined. […] Overall, the analogs have shown they can be used as chemotherapeutic agents against colon, pancreatic and bladder cancer.

[6] = system: HCT116 colon cancer cells; experiment: hexoseaminidase cell proliferation assay, HCT116; format: cell-based
From the text: as §3, §4

[7] = system: MiaPaCa-2 pancreatic cancer cells; experiment: hexoseaminidase cell proliferation assay, MiaPaCa-2; format: cell-based
Procedure: as §1, §2

[8] = system: HCT116 colon cancer tumor xenografts; experiment: HCT116 colon cancer tumor xenografts in nude mice; format: in vivo
Procedure: (§5) For in vivo, HCT116 cells were injected into the blanks of nude mice, after one week when there was a palpable tumor and these compounds were injected intraperitonially (5 mg/kg body weight) every day for 21 days. Tumor volumes were measured weekly. On 29th day mice were euthanized and the tumors were removed and weighed for use in histology, immunohistochemistry, and gene expression studies. Both THB and THBCD inhibited growth of the tumor. It is noted that the images of FIG. 4C are from left to right: control; THB; and THBCD.
as §5, with “DBQ” for “Both THB and THBCD”, “inhibited the” for “inhibited”, “16C” for “4C”, “control;” for “control; THB;”, “DBQ.” for “THBCD.”
FIGS. 19A and 19B show MRL 16 inhibits tumor growth, such as on colon cancer tumor xenografts. For in vivo, HCT116 cells were injected into the blanks of nude mice, after one week when there was a palpable tumor and these compounds were injected intraperitonially (2 mg/kg body weight) every day for 21 days. Tumor volumes were measured weekly. On 29th day mice were euthanized and the tumors were removed and weighed. MRL16 inhibited growth of the tumor.

HCT116 cells [9] = experiment: cell cycle analysis, HCT116; format: cell-based; details: for cell cycle effect (in words): HCT116 cells
SW480 cells [10] = experiment: cell cycle analysis, SW480; format: cell-based
Procedure: The analogs were tested to determine the ability induce death of colon cancer cells.

HCT116 cells [11] = experiment: colonosphere formation, HCT116; format: cell-based
From the text: These compounds may be preferred in some instances.

[12] = intraperitoneal 5 mg/kg body weight every day for 21 days
[13] = Homo sapiens, HCT-116, HCT116, 24 h
[14] = Homo sapiens, HCT-116, HCT116, 48 h
[15] = Homo sapiens, HCT-116, HCT116, 72 h
[16] = Homo sapiens, MIA PaCa-2, MiaPaCa-2, 24 h
[17] = Homo sapiens, MIA PaCa-2, MiaPaCa-2, 48 h
[18] = Homo sapiens, MIA PaCa-2, MiaPaCa-2, 72 h
[19] = intraperitoneal 2 mg/kg body weight every day for 21 days

pIC50 ([2]; PanC-1, 24 h): 4.35
pIC50 ([2]; PanC-1, 48 h): 5.00
pIC50 ([2]; PanC-1, 72 h): 5.15
pIC50 ([4]; 24 h): < 4.30
pIC50 ([4]; 48 h): 5.00
pIC50 ([4]; 72 h): 5.15
pIC50 (KU7 bladder cancer cells; KU7, 24 h): 5.00
pIC50 (KU7 bladder cancer cells; KU7, 48 h): 5.00
pIC50 (KU7 bladder cancer cells; KU7, 72 h): 5.22
pIC50 (SW480 colon cancer cells; SW480, 24 h): 4.60
pIC50 (SW480 colon cancer cells; SW480, 48 h): 5.10
pIC50 (SW480 colon cancer cells; SW480, 72 h): 5.10
pIC50 ([6]; HCT116, 24 h): 5.00
pIC50 ([6]; HCT116, 48 h): 5.22
pIC50 ([6]; HCT116, 72 h): 5.22
pIC50 ([7]; MiaPaCa-2, 24 h): 4.40
pIC50 ([7]; MiaPaCa-2, 48 h): 5.10
pIC50 ([7]; MiaPaCa-2, 72 h): 5.22
Structure (SMILES): O=C(N/N=C/c1ccc2ccccc2c1O)c1cc2ccccc2cc1O [NAL]
inhibition of cell proliferation (in words) [1]: potent inhibitor
colony formation (MiaPaCa-2 cells): inhibit colony formation
colony formation (SW480 cells [3]): inhibit colony formation
colony formation (HCT116 cells [5]): inhibit colony formation
colony formation (PanC-1 cells): inhibit colony formation
colonosphere formation (cancer stem cells): potent inhibitors of colonosphere formation

pIC50 ([1]; 48 h, all the colon, pancreatic and bladder cancer cell lines): > 5.00
pIC50 ([2]; Homo sapiens, PANC-1, 24 h): 4.35
pIC50 ([2]; Homo sapiens, PANC-1, 48 h): 5.05
pIC50 ([2]; Homo sapiens, PANC-1, 72 h): 5.15
pIC50 ([4]; 24 h): 4.30
pIC50 ([4]; 48 h): 4.60
pIC50 ([4]; 72 h): 5.22
pIC50 (KU7 bladder cancer cells; KU7, 24 h): 4.70
pIC50 (KU7 bladder cancer cells; KU7, 48 h): 5.10
pIC50 (KU7 bladder cancer cells; KU7, 72 h): 5.22
pIC50 (SW480 colon cancer cells; Homo sapiens, SW480, 24 h): 5.00
pIC50 (SW480 colon cancer cells; Homo sapiens, SW480, 48 h): 5.22
pIC50 (SW480 colon cancer cells; Homo sapiens, SW480, 72 h): 5.30
pIC50 [6, 13]: 5.00
pIC50 [6, 14]: 5.30
pIC50 [6, 15]: 5.30
pIC50 [7, 16]: 4.60
pIC50 [7, 17]: 5.10
pIC50 [7, 18]: 5.22
Structure (SMILES): CC(C)(C)C1=CC(=NNC(=O)c2cc3ccccc3cc2O)C=C(C(C)(C)C)C1=O [DBQ]
tumor volume [8, 12]: significantly reduced
tumor weight [8, 12]: significantly reduced
inhibition of cell proliferation (in words) [1]: potent inhibitor
cell cycle effect (in words) (HCT116 cells [9]; 5 μM and 10 μM, 24 hours, propidium iodide flow cytometry): induces G2/M arrest
colony formation (MiaPaCa-2 cells): inhibit colony formation
colony formation (SW480 cells [3]): inhibit colony formation
colony formation (HCT116 cells [5]): inhibit colony formation
colony formation (PanC-1 cells): inhibit colony formation
colonosphere formation (cancer stem cells): potent inhibitors of colonosphere formation

pIC50 ([1]; 48 hours, Colon cancer cell lines): > 6.52
pIC50 ([2]; Homo sapiens, PANC-1, 24 h): < 5.00
pIC50 ([2]; Homo sapiens, PANC-1, 48 h): 5.40
pIC50 ([2]; Homo sapiens, PANC-1, 72 h): 5.60
pIC50 (SW480 colon cancer cells; Homo sapiens, SW480, 24 h): < 5.70
pIC50 (SW480 colon cancer cells; Homo sapiens, SW480, 48 h): 6.52
pIC50 (SW480 colon cancer cells; Homo sapiens, SW480, 72 h): 6.70
pIC50 [6, 13]: < 5.70
pIC50 [6, 14]: 6.52
pIC50 [6, 15]: 6.70
pIC50 [7, 16]: < 5.00
pIC50 [7, 17]: < 5.00
pIC50 [7, 18]: 5.30
Structure (SMILES): C/C(=N\NC(=O)c1ccncc1)c1ccc2ccccc2c1O [MRL16]
tumor volume [8, 19]: significantly reduced
tumor weight [8, 19]: significantly reduced
inhibition of cell proliferation (in words) [1]: potent inhibitor
G0/G1 (%) (HCT116 cells [9]; HCT116, 24 h): 57.3%
G2/M (%) (HCT116 cells [9]; HCT116, 24 h): 26.9%
S (%) (HCT116 cells [9]; HCT116, 24 h): 14.5%
SubG0 Dead Cells (%) (HCT116 cells [9]; HCT116, 24 h): 1.11%
G0/G1 (%) (HCT116 cells [9]; HCT116, 48 h): 63.7%
G2/M (%) (HCT116 cells [9]; HCT116, 48 h): 19.9%
S (%) (HCT116 cells [9]; HCT116, 48 h): 14.4%
SubG0 Dead Cells (%) (HCT116 cells [9]; HCT116, 48 h): 1.70%
cell cycle effect (in words) (HCT116 cells [9]): induces G2/M arrest
G0/G1 (%) (SW480 cells [10]; SW480, 24 h): 59.8%
G2M/ (%) (SW480 cells [10]; SW480, 24 h): 19.7%
S (%) (SW480 cells [10]; SW480, 24 h): 19.7%
SubG0 Dead Cells (%) (SW480 cells [10]; SW480, 24 h): 0.77%
cell cycle effect (in words) (SW480 cells [10]; SW480, 24 h): induces G1 arrest
G0/G1 (%) (SW480 cells [10]; SW480, 48 h): 58.4%
G2M/ (%) (SW480 cells [10]; SW480, 48 h): 20.1%
S (%) (SW480 cells [10]; SW480, 48 h): 20.0%
SubG0 Dead Cells (%) (SW480 cells [10]; SW480, 48 h): 1.05%
cell cycle effect (in words) (SW480 cells [10]; SW480, 48 h): S-phase arrest
colony formation (HCT116 cells [5]): inhibit colony formation
colonosphere formation (HCT116 cells [11]): inhibits colonosphere formation
